Measured values taken from US8729047B2, “Compositions for inhibiting redox-sensitive GTPases” (Board of Regents, The University of Texas System, priority 2010, dated 2014).

Columns and labels:
[1] = test system: HME-RhoC cells; assay: Apoptosis / cell population of cells treated with thiopurines; format: cell-based, human; conditions: not shown
[2] = test system: HME-RhoC cells; assay: Matrigel invasion (cell motility) assay; format: cell-based, human; conditions: NO donor alone 10 μM, three days continuous; FIG. 14A
Procedure: FIG. 5. Determination of cell invasiveness in the presence and absence of 6-thiopurine and/or a redox agent. The top chamber of a Transwell filter (6.5 mm with 8 μm pores, Costar; Corning, N.Y.) was coated with a 10 μL aliquot of 10 mg/mL Matrigel (BD Biosciences, Bedford Mass.), and the lower chamber of the Transwell was filled with either serum-free or serum-containing media. Sample cells (e.g., 6-TG-resistant HME-RhoC cells) were prepared to resuspend cells in a serum-free medium with 0.1% BSA at a concentration of 4×10^5 cells/mL. At this point, neither 6-thiopurine nor GSNO were added to the cells. The sample cells (0.5 mL) were added to the top chamber of a Transwell filter and were incubated for 24 h at 37° C. in a 10% CO2 incubator. The Transwell filters were fixed with methanol, stained with H&E, and cells in the serum-containing samples were counted. The number of cells that had invaded the serum-free medium-containing lower chambers was used as a control background. Results are given as percent invasion over that seen in HME-RhoC cells (100%) and represent mean and standard error values from triplicate measurements.
FIG. 11. Determination of cell invasiveness in the presence and absence of […] and/or a redox agent. […] The number of cells that had invaded the serum-free medium-containing lower chambers was used as a control background. Results are given as percent invasion over that seen in HME-RhoC cells (100%) and represent mean and standard error values from triplicate measurements.
(§1) FIG. 14. Determination of cell invasiveness in the presence and absence of thiopurines and/or redox agents. […] Western blot analysis representing the total expression of RhoC in these cells also is shown. (B) Experimental procedures for the determination of the time-dependent motility of cells using the QCM Cell Invasion Assay kit in the presence and absence of 6-TG and DETA/NO are described elsewhere herein.
(§2) The top chamber of a Transwell filter (6.5 mm with 8 μm pores, Costar; Corning, N.Y.) was coated with a 10 μL aliquot of 10 mg/mL Matrigel, and the lower chamber of the Transwell was filled with either serum-free or serum-containing media. Sample cells were prepared to resuspend cells in a serum-free medium with 0.1% BSA at a concentration of 4×10^5 cells/mL. […] The Transwell filters were fixed with methanol, stained with haematoxylin and eosin, and cells in the serum-containing samples were counted. The number of cells that had invaded the serum-free, medium-containing lower chambers was used as a control background.

[3] = biological target: T1, RhoC (Homo sapiens, UniProt P08134); assay: RhoC expression (Western) and RhoC activity assay in cells; format: cell-based; set-up: endogenous in cells; host or cells: SUM149, SUM102, SW480, HCCLM3 (endogenous); HME-RhoC (transfected with wild type RhoC); conditions: SUM149 and HME-RhoC cells, NO donor alone, three days
Procedure: as §1
(§3) Cells were lysed in an extraction buffer containing 50 mM NaCl, 5 mM MgCl2, 1 mM ethylenediaminetetraacetic acid (EDTA), 0.1 mM diethylenetriaminepentaacetic acid (DTPA), and 0.1% NP40 in 150 mM TrisHCl (pH 8.0). The content of […] RhoC in cells then was determined by using Western analysis that relies on a monoclonal anti-RhoC antibody (Biocompare, South San Francisco, Calif.). To determine RhoC activity, the colorimetric RhoA activation assay Biochem Kit (Cytoskeleton, Denver, Colo.) was used essentially as described in the previous study (Hall et al. Neoplasia 10, 797-803 (2008)) except that the RhoC specific antibody (vide supra), instead of the RhoA antibody included in the assay kit, was used for this analysis.

[4] = biological target: T2, RhoC C20S (Homo sapiens, UniProt P08134, C20S); assay: as above; format: cell-based; set-up: expressed in transfected cells; host or cells: human mammary epithelial (HME) cells; conditions: HME-C20S RhoC cells, NO donor alone, three days
Procedure: as §1, §3

[5] = test system: SUM149 cells; assay: Matrigel invasion (cell motility) assay; format: cell-based, human; conditions: NO donor alone 10 μM, three days continuous; FIG. 14A
Source text: as §1, §2

[6] = test system: HME-C20S RhoC cells; assay: Matrigel invasion (cell motility) assay; format: cell-based, human; conditions: NO donor alone 10 μM, three days continuous; FIG. 14A
Source text: as §1, §2

[7] = biological target: T2, RhoC C20S; assay: Redox agent-mediated 6-TGDP dissociation (FIG. 16C); format: biochemical; set-up: made in house; host or cells: E. coli; conditions: 6-TGDP-loaded RhoC C20S treated with redox agent, free [3H]GDP 10 μM
Procedure: (§4) FIG. 16. Kinetic properties of RhoC with 6-TGDP in the presence or absence of a redox agent. All kinetic analyses are described elsewhere herein. (A) ^appKD values of Rac1, RhoA, RhoC, and RhoC C20S for 6-TGDP were estimated to be 7.9, 11.6, 11.8, and 11.2 μM, respectively. ^trueKD values of Rac1, RhoA, […] for 6-TGDP were then calculated to be 5.1, 10.8, 11.1, and 10.5 μM, respectively, by using a compensation equation, ^trueKD for 6-TGDP=^appKD for 6-TGDP/(1+[[^3H]GDP]/^trueKD for GDP) (Heo, J., and Hong, I. (2010) Biochemistry 49, 3965-3976), in conjunction with the values given. […] The GDP dissociation rates from RhoC C20S by NO, .NO2, and N2O3 were estimated to be 0.02×10^−3, 0.05×10^−3, and 0.04×10^−3 s^−1, respectively. […] (D) ^appKD values of RhoC for [^3H]GDP in the presence or absence of DTT were estimated to be 22.4 μM and […], respectively. ^appKD values of C20S RhoC for [^3H]GDP in the presence or absence of DTT were determined to be 24.8 μM and 25.2 μM, respectively. The regression values associated with these fits were >0.8595. All data points associated with vertical standard error bars shown in this figure are the mean values of triplicate measurements.
(§5) Transition metal-free assay buffer and vials as described in a previous study (Heo et al. Biochemistry 49, 3965-3976 (2010)) were used for all kinetic assays. The kinetic assay buffer contains the highest grade of 50 mM NaCl, 10 mM MgCl2, 1 mM EDTA, and 0.1 mM DTPA in 50 mM TrisHCl (pH 7.4). Before performance of any of the assays, all protein samples also were dialyzed with a metal-free buffer under anaerobic conditions. As with RhoA and Rac1 (Heo et al. J. Biol. Chem. 280, 31003-31010 (2005)), C20S RhoC were expressed in E. coli and purified using anionic and size exclusion columns.
(§6) (c) To test the Rho 6-TGDP-binding interaction in the presence of redox agents, the 6-TGDP-loaded RhoC protein was treated with redox agents in the presence of free […] (10 μM). An association of RhoC protein with [^3H]GDP to produce a RhoC-[^3H]GDP complex will occur proportionally after RhoC releases 6-TGDP through the action of redox agents. Therefore, the fraction of the redox agent-mediated release of the bound 6-TGDP per Rho protein over time can be deduced by determination of the RhoC-bound [^3H]GDP, where the quantity of RhoC-bound 6-TGDP equals 1 minus the determined fraction of the RhoC-bound [^3H]GDP as described in Section (b). The estimated data associated with the quantity of RhoC-bound 6-TGDP then was fitted to a one-phase exponential decay; Prism software was used to derive the rate of 6-TGDP dissociation from RhoC.

[8] = biological target: T1, RhoC; assay: as above; format: biochemical; set-up: made in house; host or cells: E. coli; conditions: 6-TGDP-loaded RhoC treated with redox agent, free [3H]GDP 10 μM
Procedure: as §4, §5, §6

[9] = biological target: T2, RhoC C20S; assay: Redox agent-mediated GDP dissociation (FIG. 16B); format: biochemical; set-up: made in house; host or cells: E. coli; conditions: [3H]GDP-loaded protein 1 μM, redox agent ~3 μM, free GDP 10 μM, anaerobic
Procedure: as §4, §5
(§7) (b) The effect of redox agents such as NO, .NO2, and N2O3 on the binding interaction between RhoC proteins and GDP or 6-TGDP was examined under N2-filled serum-stoppered anaerobic experimental conditions (O2<3 ppm). These anaerobic experimental conditions were necessary to block the reaction of NO or .NO2 with O2 to produce higher oxides. The contents of NO and .NO2, respectively, in the sealed assay vials were determined by using a hemoglobin assay and NO2^−/NO3^− Assay Kit-C II (Dojindo) under anaerobic conditions (Heo et al. J. Biol. Chem. 280, 31003-31010 (2005); Heo et al. Biochemistry 43, 2314-2322 (2004)). N2O3 was generated by mixing NO and .NO2 1:1 stoichiometrically. […] The fraction of the redox agent-mediated release of the bound [^3H]GDP per Rho protein over time was determined as noted above, and the result was plotted against time. The rates of RhoC GDP dissociation in the presence of redox agents were determined by using Prism software to fit the result to a one-phase exponential decay.

[10] = biological target: T1, RhoC; assay: Redox agent-mediated GDP dissociation (FIG. 16B); format: biochemical; set-up: made in house; host or cells: E. coli; conditions: [3H]GDP-loaded RhoC 1 μM, redox agent ~3 μM, free GDP 10 μM, anaerobic
Procedure: as §4, §5, §7

T2 sequence (P08134 whole entry C20S): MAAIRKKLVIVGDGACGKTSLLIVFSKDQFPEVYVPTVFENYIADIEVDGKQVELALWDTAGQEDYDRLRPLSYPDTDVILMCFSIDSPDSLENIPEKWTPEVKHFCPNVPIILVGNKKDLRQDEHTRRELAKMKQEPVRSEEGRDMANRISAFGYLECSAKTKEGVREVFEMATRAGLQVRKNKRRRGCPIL
T1 sequence (P08134 whole entry): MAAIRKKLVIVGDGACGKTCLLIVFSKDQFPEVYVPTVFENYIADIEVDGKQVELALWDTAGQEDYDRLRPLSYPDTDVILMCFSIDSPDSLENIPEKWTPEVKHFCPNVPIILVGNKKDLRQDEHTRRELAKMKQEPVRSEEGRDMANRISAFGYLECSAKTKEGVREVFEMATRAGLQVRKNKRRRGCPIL

Compound	cell population with other 6-TG analogs [1]	rate of 6-TGDP dissociation [7] [s⁻¹]	rate of 6-TGDP dissociation [8] [s⁻¹]	rate of GDP dissociation [9] [s⁻¹]	rate of GDP dissociation [10] [s⁻¹]	further results
Sc1ncnc2nc[nH]c12 [6-MP, 6-mercaptopurine]	decrease in the cell population	–	–	–	–	–
N[C@@H](CCC(=O)N[C@@H](CSN=O)C(=O)NCC(=O)O)C(=O)O [GSNO, S-Nitrosoglutathione]	–	–	–	–	–	effect on invasive cell motility [2]: minimal; effect on RhoC activity [3]: minimal; effect on RhoC activity [4]: minimal; effect on invasive cell motility [5]: minimal; effect on invasive cell motility [6]: minimal
[N]=O [NO, nitric oxide]	–	4e-05	8e-05	2e-05	0.00019	–
[O]N=O [.NO2, nitrogen dioxide]	–	0.00627	0.00265	5e-05	0.00604	–
Cn1cnc([N+](=O)[O-])c1Sc1ncnc2nc[nH]c12 [AZA, azathioprine]	decrease in the cell population	–	–	–	–	–
